Among the data in EP4001279A1, “NOVEL SPIROPYRROLIDINE DERIVED ANTIVIRAL AGENTS” (Enanta Pharmaceuticals, Inc., priority 2020, dated 2022) are IC50 and EC50 values, retold here.

One experiment addresses SARS-CoV-2 3CL-protease (Severe acute respiratory syndrome coronavirus 2, UniProt P0DTD1). Briefly: SARS-CoV-2 3C-like (3CL) protease fluorescence assay (FRET). It counts as biochemical. The note with it: read-out: FRET IC50.
Experiment [1] relates to 229E human corona virus (hCoV). Briefly: 229E live virus assay (CPE, ATPlite readout in MRC-5 cells). The format is cell-based, hCoV-229E. The note with it: MOI 0.05, ATPlite readout, run in duplicate.
Setting [2] is: Human coronavirus 229E, MRC5, hCoV-229E live virus.
The mark [3] stands for this setting: SARS-CoV-2 3CL-protease 10 nM, 30 min preincubation at RT, substrate 40 µM, test compounds 0 - 10 µM, duplicate.

Where two headings read alike, the source gives them in different places.

For the compound `CC(C)(C)OC[C@H](NC(=O)c1cc2c(F)cc(F)cc2[nH]1)C(=O)N1C[C@]2(C[C@H]1C#N)C(=O)Nc1ccccc12` [Example 125], the half-inhibitory concentration (IC50) at SARS-CoV-2 3CL-protease is below 100 nM. In addition, the concentration giving a half-maximal response (EC50) in experiment [1] (setting [2]) fell in the range of 100 to 1000 nM.
In the same order, the values of `CC(C)C[C@@H](C(=O)N1C[C@]2(C[C@H]1C#N)C(=O)Nc1ccccc12)N(C)C(=O)c1cc2cc(Br)ccc2cn1` [Example 230] are 100 to 1000 nM and below 100 nM.
On the same counts, the results for `CN(C(=O)[C@@H](O)C(C)(C)C)[C@@H](CC1CC1)C(=O)N1C[C@]2(C[C@H]1C#N)C(=O)Nc1ccccc12` [Example 416] are below 100 nM and below 100 nM.
`CC(C)CC(C(=O)N1CC2(CC1C#N)C(=O)Nc1ccccc12)N(C)C(=O)c1nccc2ccccc12` (stereo not drawn) [Example 300]: the IC50 on SARS-CoV-2 3CL-protease (setting [3]) lay within 100 to 1000 nM.
In the case of `CC(C)CC(C(=O)N1CC2(CC1C#N)C(=O)Nc1ccccc12)N(C)C(=O)C1CCN(C(=O)C(F)(F)F)C1` (stereo not drawn) [Example 347], on SARS-CoV-2 3CL-protease, the IC50 was below 100 nM. The concentration for a half-maximal effect (EC50) in experiment [1] (hCoV-229E live virus) was below 100 nM.
In the case of `CC(C)CC(C(=O)N1CC2(CC1C#N)C(=O)Nc1ccccc12)N(C)C(=O)c1cc(OC2CC2)c2nn(C3CC3)cc2c1` (stereo not drawn) [Example 307], the 50% inhibitory concentration (IC50) at SARS-CoV-2 3CL-protease is 100 to 1000 nM. This compound also returned an EC50 in experiment [1] (setting [2]) of 100 to 1000 nM.
On to `CC(C)C[C@H](NC(=O)c1cc2c(F)cc(F)c(F)c2[nH]1)C(=O)N1C[C@]2(C[C@H]1C#N)C(=O)Nc1ccccc12` [Example 152], for which the IC50 on SARS-CoV-2 3CL-protease (setting [3]) is below 100 nM.
As to `CC(C)CC(C(=O)N1CC2(CC1C#N)C(=O)Nc1ccccc12)N(C)C(=O)c1nnn(-c2ccccc2)n1` (stereo not drawn) [Example 287], on SARS-CoV-2 3CL-protease, the IC50 is below 100 nM. For the same compound, the EC50 in experiment [1] (setting [2]) was below 100 nM.
For the compound `CN(C(=O)c1cnn(C(C)(C)C)c1)[C@@H](CC1CC1)C(=O)N1C[C@]2(C[C@H]1C#N)C(=O)Nc1ccccc12` [Example 404], on SARS-CoV-2 3CL-protease (setting [3]), the IC50 is below 100 nM.
Turning to `CC(C)CC(C(=O)N1CC2(CC1C#N)C(=O)Nc1ccccc12)N(C)C(=O)C1CC1c1ccccc1` (stereo not drawn) [Example 281], at SARS-CoV-2 3CL-protease, the IC50 is below 100 nM. In experiment [1] (hCoV-229E live virus), the EC50 is below 100 nM.
In the case of `[2H]C([2H])([2H])N(C(=O)C(O)c1ccc(F)cc1)C(CCCC)C(=O)N1CC2(CC1C#N)C(=O)Nc1ccccc12` (stereo not drawn) [Example 421], the IC50 at SARS-CoV-2 3CL-protease (setting [3]) was below 100 nM.
On to `COC[C@@H](C(=O)N1C[C@]2(C[C@H]1C#N)C(=O)Nc1ccccc12)N(C)C(=O)c1cc2c(F)cc(F)cc2[nH]1` [Example 369], for which the half-inhibitory concentration (IC50) on SARS-CoV-2 3CL-protease (setting [3]) was below 100 nM.
Same read-out and setting: under `CC(C)CC(C(=O)N1CC2(CC1C#N)C(=O)Nc1ccccc12)N(C)C(=O)c1cnc2ccc(F)cc2c1` (stereo not drawn) [Example 337] stands below 100 nM; under `[2H]C([2H])([2H])N(C(=O)C(O)c1ccc(F)cc1)C(CCCC)C(=O)N1CC2(CC1C#N)C(=O)Nc1ccccc12` (stereo not drawn) [Example 420], below 100 nM.
Turning to `CC(C)C[C@@H](C(=O)N1C[C@]2(C[C@H]1C(=O)C(=O)NC1CCCCC1)C(=O)Nc1ccccc12)N(C)C(=O)c1cc2c(F)cc(F)c(F)c2[nH]1` [Example 156], at SARS-CoV-2 3CL-protease, the half-maximal inhibitory concentration (IC50) was above 1000 nM. This compound also showed an EC50 in experiment [1] (setting [2]) above 1000 nM.
Turning to `COc1cc(C(=O)N(C)[C@@H](CC(C)C)C(=O)N2C[C@]3(C[C@H]2C#N)C(=O)Nc2ccccc23)cn2cc(C(F)F)nc12` [Example 255], the IC50 at SARS-CoV-2 3CL-protease was below 100 nM. Also, the concentration giving a half-maximal response (EC50) in experiment [1] (setting [2]) was below 100 nM.
With `CC(C)(C)CC(NC(=O)c1cnn(-c2ccc(F)cc2)c1)C(=O)N1CC2(CC1C#N)C(=O)Nc1ccccc12` (stereo not drawn) [Example 146], the IC50 at SARS-CoV-2 3CL-protease is below 100 nM. The EC50 in experiment [1] (setting [2]) was below 100 nM.
In the case of `CC(C)C[C@@H](C(=O)N1C[C@]2(C[C@H]1C#N)C(=O)Nc1ccccc12)N(C)C(=O)[C@@H]1C[C@H]1c1ccccc1` [Example 280], the concentration for half-maximal inhibition (IC50) on SARS-CoV-2 3CL-protease is below 100 nM. Also, in experiment [1] (setting [2]), the EC50 is below 100 nM.
On to `[2H]C([2H])([2H])N(C(=O)c1cnn(CC(F)(F)F)c1)[C@@H](CCCC)C(=O)N1C[C@]2(C[C@H]1C#N)C(=O)Nc1ccccc12` [Example 394], for which the IC50 on SARS-CoV-2 3CL-protease (setting [3]) is below 100 nM.
Turning to `COc1cccc2[nH]c(C(=O)N[C@@H](COC(C)(C)C)C(=O)N3C[C@]4(C[C@H]3C#N)C(=O)Nc3ccccc34)cc12` [Example 124], the IC50 at SARS-CoV-2 3CL-protease was below 100 nM. In experiment [1] (setting [2]), this compound came in with an EC50 below 100 nM.
`COc1cc(C(=O)N(C)C(CC(C)C)C(=O)N2CC3(CC2C#N)C(=O)Nc2ccccc23)cc2cn(C3CC3)nc12` (stereo not drawn) [Example 308]: the IC50 at SARS-CoV-2 3CL-protease was below 100 nM. Moreover, in experiment [1] (setting [2]), the EC50 fell in the range of 100 to 1000 nM.
On the same counts, the results for `C[C@H](OC(=O)N[C@@H](CC(C)(C)C)C(=O)N1C[C@]2(C[C@H]1C#N)C(=O)Nc1ccc(Cl)cc12)c1ccc(F)cc1` [Example 494] are below 100 nM and 100 to 1000 nM.
Consider `CC(C)C[C@@H](C(=O)N1C[C@]2(C[C@H]1C#N)C(=O)Nc1ccccc12)N(C)C(=O)[C@H]1CCN(C(=O)C(F)(F)F)C1` [Example 346], for which, on SARS-CoV-2 3CL-protease, the IC50 was below 100 nM. The compound also displayed an EC50 in experiment [1] (setting [2]) below 100 nM.
For `CC(C)C[C@@H](C(=O)N1C[C@]2(C[C@H]1C#N)C(=O)Nc1ccccc12)N(C)C(=O)c1ccccc1OC(F)F` [Example 176], at SARS-CoV-2 3CL-protease, the IC50 was below 100 nM. This compound registered an EC50 in experiment [1] (setting [2]) below 100 nM.
As to `CN(C(=O)c1cc2c(F)cc(F)cc2[nH]1)[C@@H](Cc1ccc(O)cc1)C(=O)N1C[C@]2(C[C@H]1C#N)C(=O)Nc1ccccc12` [Example 388], the IC50 at SARS-CoV-2 3CL-protease (setting [3]) was below 100 nM.
The same measure, in the same setting: under `C[C@@H](OC(=O)N[C@@H](CC(C)(C)C)C(=O)N1C[C@]2(C[C@H]1C#N)C(=O)Nc1ccc(F)cc12)c1ccc(F)cc1` [Example 523] stands below 100 nM.
On to `CC(C)C[C@@H](C(=O)N1C[C@]2(C[C@H]1C#N)C(=O)Nc1ccccc12)N(C)C(=O)c1ccc(F)cn1` [Example 198], for which, in experiment [1] (setting [2]), the EC50 is below 100 nM.
In experiment [1] (setting [2]), `CC(C)C[C@@H](C(=O)N1C[C@]2(C[C@H]1C#N)C(=O)Nc1ccccc12)N(C)C(=O)c1ccccc1-c1ccccc1` [Example 261] gave an EC50 of 100 to 1000 nM.
Same read-out and setting: in the case of `CC(C)(C)[C@H](NC(=O)OCc1ccccc1)C(=O)N1C[C@]2(C[C@H]1C#N)C(=O)Nc1ccccc12` [Example 3] it was above 1000 nM; in that of `CC(C)C[C@@H](C(=O)N1C[C@]2(C[C@H]1C#N)C(=O)Nc1ccccc12)N(C)C(=O)c1nnc(C2CC2)o1` [Example 354], below 100 nM.
On to `CN(C(=O)c1cc2c(F)cccc2[nH]1)[C@@H](CC1CCC1)C(=O)N1C[C@]2(C[C@H]1C#N)C(=O)Nc1ccccc12` [Example 93], for which the concentration for a half-maximal effect (EC50) in experiment [1] (setting [2]) was below 100 nM.
Still for that read-out and setting: in the case of `COc1cccc2[nH]c(C(=O)N[C@@H](CC(C)C)C(=O)N3C[C@]4(C[C@H]3C(=O)C(=O)NCc3ccccc3)C(=O)Nc3ccccc34)cc12` [Example 32] it was 100 to 1000 nM; in that of `CC(C)(F)C[C@H](NC(=O)c1cc2c(F)cc(F)cc2[nH]1)C(=O)N1C[C@]2(C[C@H]1C#N)C(=O)Nc1ccc(Cl)cc12` [Example 123], below 100 nM.
On the same count and under the same terms, under `CC(C)C[C@@H](C(=O)N1C[C@]2(C[C@H]1C#N)C(=O)Nc1ccccc12)N(C)C(=O)c1cnccn1` [Example 200] stands below 100 nM; under `CC(C)C[C@@H](C(=O)N1C[C@]2(C[C@H]1C#N)C(=O)Nc1ccccc12)N(C)C(=O)c1cc2sccc2[nH]1` [Example 209], below 100 nM.
On the same count and under the same terms, in the case of `Cc1cccc2[nH]c(C(=O)N(C)[C@@H](CC(C)C)C(=O)N3C[C@]4(C[C@H]3C#N)C(=O)Nc3ccccc34)nc12` [Example 252] it was below 100 nM.
Take `CC(C)C[C@@H](C(=O)N1C[C@]2(C[C@H]1C#N)C(=O)Nc1ccccc12)N(C)C(=O)[C@@H](c1cnn(C)c1)C(C)C` [Example 348]: the EC50 in experiment [1] (setting [2]) is 100 to 1000 nM.
On the same count and under the same terms, in the case of `CC(C)C[C@@H](C(=O)N1C[C@]2(C[C@H]1C#N)C(=O)Nc1ccccc12)N(C)C(=O)c1cc(Cl)c2ncc(C(F)(F)F)cc2c1` [Example 240] it was below 100 nM; in that of `CC(C)C[C@@H](C(=O)N1C[C@]2(C[C@H]1C#N)C(=O)Nc1ccccc12)N(C)C(=O)c1cccc(N)n1` [Example 199], below 100 nM.
`COc1cccc2[nH]c(C(=O)N(C)[C@@H](COC(C)(C)C)C(=O)N3C[C@]4(C[C@H]3C#N)C(=O)Nc3ccccc34)cc12` [Example 370] showed an EC50 in experiment [1] (setting [2]) below 100 nM.
Still for that read-out and setting: in the case of `CC(C)(C)[C@H](NC(=O)c1cc2c(F)cccc2[nH]1)C(=O)N1C[C@]2(C[C@H]1C#N)C(=O)Nc1ccccc12` [Example 18] it was 100 to 1000 nM.

As usually defined, the IC50 is the midpoint of a concentration-inhibition curve. The term EC50 denotes the concentration that produces a half-maximal response. A higher EC50 goes with a need for much substance.
